{"source": "patent US7138361B2", "about": "“Herbicidal heterocycles” (E. I. du Pont de Nemours and Company, priority 2000, dated 2006)", "assay_in_all_cases": "Test C preemergence", "format_in_all_cases": "in vivo", "key": {"[1]": {"system": "Nightshade"}, "[2]": {"system": "Sunflower"}, "[3]": {"system": "Surinam grass (Brachiaria decumbens)", "summary_of_the_method": "(§1)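 Seeds are planted and treated before emergence; for the postemergence test, plants at 1- to 4-leaf stage (2–18 cm) receive the same formulation, a solvent blend containing surfactant. Plants stay in the greenhouse 12–14 days, then response is scored visually from 0 (none) to 100 (complete control).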"}, "[4]": {"system": "bermudagrass (Cynodon dactylon)", "summary_of_the_method": "as §1"}, "[5]": {"system": "cocklebur (Xanthium strumarium)", "summary_of_the_method": "as §1"}, "[6]": {"system": "common ragweed (Ambrosia elatior)", "summary_of_the_method": "as §1"}, "[7]": {"system": "corn (Zea mays)", "summary_of_the_method": "as §1"}, "[8]": {"system": "crabgrass (Digitaria sanguinalis)", "summary_of_the_method": "as §1"}, "[9]": {"system": "giant foxtail (Setaria faberii)", "summary_of_the_method": "as §1"}, "[10]": {"system": "goosegrass (Eleusine indica)", "summary_of_the_method": "as §1"}, "[11]": {"system": "johnsongrass (Sorghum halepense)", "summary_of_the_method": "as §1"}, "[12]": {"system": "kochia (Kochia scoparia)", "summary_of_the_method": "as §1"}, "[13]": {"system": "lambsquarters (Chenopodium album)", "summary_of_the_method": "as §1"}, "[14]": {"system": "morningglory (Ipomoea hederacea)", "summary_of_the_method": "as §1"}, "[15]": {"system": "pigweed (Amaranthus retroflexus)", "summary_of_the_method": "as §1"}, "[16]": {"system": "soybean (Glycine max)", "summary_of_the_method": "as §1"}, "[17]": {"system": "velvetleaf (Abutilon theophrasti)", "summary_of_the_method": "as §1"}, "[18]": {"system": "woolly cupgrass (Eriochloa villosa)", "summary_of_the_method": "as §1"}, "[19]": {"system": "yellow nutsedge (Cyperus esculentus)", "summary_of_the_method": "as §1"}, "[20]": {"system": "Nightshade", "settings": "Rate 250 g/ha, visual evaluation after 12 to 14 days"}, "[21]": {"settings": "Rate 62 g/ha, scale 0 to 100, 0 no effect, 100 complete control"}, "[22]": {"settings": "Preemergence, Rate 500 g/ha, scale 0 to 100"}, "[23]": {"settings": "preemergence, Rate 31 g/ha, scale 0 to 100"}, "[24]": {"settings": "preemergence, Rate 250 g/ha, visual evaluation after 12 to 14 days"}, "[25]": {"settings": "preemergence, Rate 125 g/ha, scale 0 to 100, 0 no effect, 100 complete control"}}}
{"compound": "CCC(CC)c1ccn(C2SCN(c3cccc(C(F)(F)F)c3)C2=O)n1", "note": "(centres unmarked) [Compound 25]", "values": [{"measurement": "Plant response rating, Nightshade", "setting": "[1]; Rate 31 g/ha, scale 0 to 100", "value": 20}, {"measurement": "Plant response rating, Nightshade", "setting": "[1]; [21]", "value": 100}, {"measurement": "Plant response rating, Nightshade", "setting": "[1]; Rate 125 g/ha, scale 0 to 100, 0 no effect, 100 complete control", "value": 100}, {"measurement": "Plant response rating, Nightshade", "setting": "[1]; Rate 500 g/ha, scale 0 to 100", "value": 100}, {"measurement": "Plant response rating, Sunflower", "setting": "[2]; [21]", "value": 30}, {"measurement": "Plant response rating, Sunflower", "setting": "[2]; Rate 500 g/ha, scale 0 to 100", "value": 70}, {"measurement": "Plant response rating, Surinam grass", "setting": "[3]; [22]", "value": 80}, {"measurement": "Plant response rating, Surinam grass", "setting": "[3]; [21]", "value": 40}, {"measurement": "Plant response rating, Surinam grass", "setting": "[3]; [23]", "value": 20}, {"measurement": "Plant response rating (0 to 100), Surinam grass", "setting": "[3]; [24]", "value": 80}, {"measurement": "Plant response rating, Surinam grass", "setting": "[3]; [25]", "value": 80}, {"measurement": "Plant response rating, Bermudagrass", "setting": "[4]; [22]", "value": 100}, {"measurement": "Plant response rating, Bermudagrass", "setting": "[4]; [21]", "value": 100}, {"measurement": "Plant response rating, Bermudagrass", "setting": "[4]; [23]", "value": 90}, {"measurement": "Plant response rating (0 to 100 where 0 is no effect and 100 is complete control), Bermudagrass", "setting": "[4]; [24]", "value": 100}, {"measurement": "Plant response rating, Bermudagrass", "setting": "[4]; [25]", "value": 100}, {"measurement": "Plant response rating, Cocklebur", "setting": "[5]; [22]", "value": 70}, {"measurement": "Plant response rating, Cocklebur", "setting": "[5]; [21]", "value": 0}, {"measurement": "Plant response rating, Cocklebur", "setting": "[5]; [23]", "value": 0}, {"measurement": "Plant response rating (0 to 100), Cocklebur", "setting": "[5]; [24]", "value": 100}, {"measurement": "Plant response rating, Cocklebur", "setting": "[5]; [25]", "value": 0}, {"measurement": "Plant response rating, Ragweed, Common", "setting": "[6]; [22]", "value": 100}, {"measurement": "Plant response rating, Ragweed, Common", "setting": "[6]; [21]", "value": 70}, {"measurement": "Plant response rating, Ragweed, Common", "setting": "[6]; [23]", "value": 0}, {"measurement": "Plant response rating (0 to 100), Ragweed, Common", "setting": "[6]; [24]", "value": 70}, {"measurement": "Plant response rating, Ragweed, Common", "setting": "[6]; [25]", "value": 70}, {"measurement": "Plant response rating, Corn", "setting": "[7]; [22]", "value": 50}, {"measurement": "Plant response rating, Corn", "setting": "[7]; [21]", "value": 0}, {"measurement": "Plant response rating, Corn", "setting": "[7]; [23]", "value": 0}, {"measurement": "Plant response rating (0 to 100), Corn", "setting": "[7]; [24]", "value": 20}, {"measurement": "Plant response rating, Corn", "setting": "[7]; [25]", "value": 20}, {"measurement": "Plant response rating, Crabgrass", "setting": "[8]; [22]", "value": 100}, {"measurement": "Plant response rating, Crabgrass", "setting": "[8]; [21]", "value": 100}, {"measurement": "Plant response rating, Crabgrass", "setting": "[8]; [23]", "value": 100}, {"measurement": "Plant response rating (0 to 100), Crabgrass", "setting": "[8]; [24]", "value": 100}, {"measurement": "Plant response rating, Crabgrass", "setting": "[8]; [25]", "value": 100}, {"measurement": "Plant response rating, Foxtail, Giant", "setting": "[9]; [22]", "value": 90}, {"measurement": "Plant response rating, Foxtail, Giant", "setting": "[9]; [21]", "value": 90}, {"measurement": "Plant response rating, Foxtail, Giant", "setting": "[9]; [23]", "value": 20}, {"measurement": "Plant response rating (0 to 100), Foxtail, Giant", "setting": "[9]; [24]", "value": 100}, {"measurement": "Plant response rating, Foxtail, Giant", "setting": "[9]; [25]", "value": 70}, {"measurement": "Plant response rating, Goosegrass", "setting": "[10]; [22]", "value": 100}, {"measurement": "Plant response rating, Goosegrass", "setting": "[10]; [21]", "value": 100}, {"measurement": "Plant response rating, Goosegrass", "setting": "[10]; [23]", "value": 100}, {"measurement": "Plant response rating (0 to 100), Goosegrass", "setting": "[10]; [24]", "value": 100}, {"measurement": "Plant response rating, Goosegrass", "setting": "[10]; [25]", "value": 100}, {"measurement": "Plant response rating, Johnsongrass", "setting": "[11]; [22]", "value": 100}, {"measurement": "Plant response rating, Johnsongrass", "setting": "[11]; [21]", "value": 70}, {"measurement": "Plant response rating, Johnsongrass", "setting": "[11]; [23]", "value": 30}, {"measurement": "Plant response rating (0 to 100), Johnsongrass", "setting": "[11]; [24]", "value": 90}, {"measurement": "Plant response rating, Johnsongrass", "setting": "[11]; [25]", "value": 90}, {"measurement": "Plant response rating, Kochia", "setting": "[12]; [22]", "value": 100}, {"measurement": "Plant response rating, Kochia", "setting": "[12]; [21]", "value": 50}, {"measurement": "Plant response rating, Kochia", "setting": "[12]; [23]", "value": 60}, {"measurement": "Plant response rating (0 to 100), Kochia", "setting": "[12]; [24]", "value": 100}, {"measurement": "Plant response rating, Kochia", "setting": "[12]; [25]", "value": 100}, {"measurement": "Plant response rating, Lambsquarters", "setting": "[13]; [22]", "value": 100}, {"measurement": "Plant response rating, Lambsquarters", "setting": "[13]; [21]", "value": 100}, {"measurement": "Plant response rating, Lambsquarters", "setting": "[13]; [23]", "value": 100}, {"measurement": "Plant response rating (0 to 100), Lambsquarters", "setting": "[13]; [24]", "value": 100}, {"measurement": "Plant response rating, Lambsquarters", "setting": "[13]; [25]", "value": 100}, {"measurement": "Plant response rating, Morningglory", "setting": "[14]; [22]", "value": 90}, {"measurement": "Plant response rating, Morningglory", "setting": "[14]; [21]", "value": 20}, {"measurement": "Plant response rating, Morningglory", "setting": "[14]; [23]", "value": 0}, {"measurement": "Plant response rating (0 to 100), Morningglory", "setting": "[14]; [24]", "value": 100}, {"measurement": "Plant response rating, Morningglory", "setting": "[14]; [25]", "value": 30}, {"measurement": "Plant response rating, Pigweed", "setting": "[15]; [22]", "value": 90}, {"measurement": "Plant response rating, Pigweed", "setting": "[15]; [21]", "value": 60}, {"measurement": "Plant response rating, Pigweed", "setting": "[15]; [23]", "value": 100}, {"measurement": "Plant response rating (0 to 100), Pigweed", "setting": "[15]; [24]", "value": 90}, {"measurement": "Plant response rating, Pigweed", "setting": "[15]; [25]", "value": 100}, {"measurement": "Plant response rating, Soybean", "setting": "[16]; [22]", "value": 60}, {"measurement": "Plant response rating, Soybean", "setting": "[16]; [21]", "value": 0}, {"measurement": "Plant response rating, Soybean", "setting": "[16]; [23]", "value": 20}, {"measurement": "Plant response rating (0 to 100), Soybean", "setting": "[16]; [24]", "value": 50}, {"measurement": "Plant response rating, Soybean", "setting": "[16]; [25]", "value": 30}, {"measurement": "Plant response rating, Velvetleaf", "setting": "[17]; [22]", "value": 20}, {"measurement": "Plant response rating, Velvetleaf", "setting": "[17]; [21]", "value": 30}, {"measurement": "Plant response rating, Velvetleaf", "setting": "[17]; [23]", "value": 0}, {"measurement": "Plant response rating (0 to 100), Velvetleaf", "setting": "[17]; [24]", "value": 70}, {"measurement": "Plant response rating, Velvetleaf", "setting": "[17]; [25]", "value": 0}, {"measurement": "Plant response rating, Cupgrass, Woolly", "setting": "[18]; [22]", "value": 100}, {"measurement": "Plant response rating, Cupgrass, Woolly", "setting": "[18]; [21]", "value": 80}, {"measurement": "Plant response rating, Cupgrass, Woolly", "setting": "[18]; [23]", "value": 60}, {"measurement": "Plant response rating (0 to 100), Cupgrass, Woolly", "setting": "[18]; [24]", "value": 100}, {"measurement": "Plant response rating, Cupgrass, Woolly", "setting": "[18]; [25]", "value": 100}, {"measurement": "Plant response rating, Nutsedge", "setting": "[19]; [22]", "value": 0}, {"measurement": "Plant response rating, Nutsedge", "setting": "[19]; [21]", "value": 0}, {"measurement": "Plant response rating, Nutsedge", "setting": "[19]; [23]", "value": 0}, {"measurement": "Plant response rating (0 to 100), Nutsedge", "setting": "[19]; [24]", "value": 40}, {"measurement": "Plant response rating, Nutsedge", "setting": "[19]; [25]", "value": 0}, {"measurement": "Plant response rating (0 to 100), Nightshade", "setting": "[20]", "value": 90}]}
